From patent US12617799B2, “Pyrazolopyrimidinone compounds” (Orphagen Pharmaceuticals, Inc., priority 2021, dated 2026)
pEC50: −log10 of the molar value. Where two headings read alike, the source gives them in different places.

Experiments:
human SF-1 = biological target: T1, human SF-1 (Homo sapiens, UniProt Q13285); assay: SF-1 Luc assay (Gal4DBD-SF-1LBD luciferase reporter in transfected CHO-K1 cells); type: cell-based; conditions: CHO-K1 cells transfected with GAL4-SF-1 plasmid, 40 hours incubation; read-out: hSF-1-Luc: EC50
T1 construct: expressed in transfected cells; host or cells: CHO-K1 cells (Chinese hamster ovary), transient cotransfection with pG5luc
T1 sequence (Q13285 198-461 limits assumed): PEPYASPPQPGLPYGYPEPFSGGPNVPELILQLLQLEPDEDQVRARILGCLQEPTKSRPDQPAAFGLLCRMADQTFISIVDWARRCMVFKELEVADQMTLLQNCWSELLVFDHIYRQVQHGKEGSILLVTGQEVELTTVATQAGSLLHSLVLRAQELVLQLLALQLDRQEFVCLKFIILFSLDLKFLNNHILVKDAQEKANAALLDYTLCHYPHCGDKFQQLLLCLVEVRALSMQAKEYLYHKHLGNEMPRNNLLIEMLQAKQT
Source text: BamHI and XbaI sites introduced by the primers […] (forward) and […] (reverse) were used for subcloning the amplicon into pFA-CMV.
Cells were routinely cultured by splitting them from 1:10 to 1:20. […] Four hours after transfection, cells were trypsinized and suspended to a concentration of 1.6×10^5 cells/ml in supplemented Ham's F-12 media.
Assays: The collected cells were resuspended in the culture medium and plated into a 384 well-white plate (Corning Life Sciences, Acton, MA) at 8,000 cells/50 μL/well.
Measurement of SF-1 Transcriptional Activity: SF-1 transcriptional activity was detected as the intracellular Luc activity using SteadyLite Plus HTS Reporter Gene Assay System. After the measurement of the cell viability, the culture media in the 384 well-plate were completely removed. Then, 30 μL of the Luc substrate solution was added into each well and incubated for 10 min at room temperature. After the incubation, luminescence of each well was measured by a microplate reader.
Calculation of the SF-1 Transcriptional Activity (% of Control): The % of control for the transcriptional activity was calculated according to the following equation: % of control=A/B×100 Equation • A: luminescence count in the test article-treated CHO cells transfected with GAL4-SF-1 plasmid • B: mean luminescence count in the vehicle-treated CHO cells transfected with GAL4-SF-1 plasmid

[1] = system: rat Leydig tumor cell line R2C; assay: R2C proliferation assay for SF-1 antagonists (EdU incorporation); type: cell-based; conditions: read-out: R2C: EC50
Experimental: SF-1 regulates progenitor cell formation and survival in adult Leydig cells. Anti-proliferative effects of SF-1 antagonists using a SF-1+ rat Leydig tumor cell line, R2C, was investigated. Cell proliferation was measured by detecting DNA incorporation of EdU, a nucleoside analogue that can be fluorescently tagged after cell fixation.
Proliferation of the rat Leydig tumor cell line R2C (ATCC® CCL-97™) was assessed using 5-ethynyl-2′-deoxyuridine (EdU), a nucleoside analogue incorporated during DNA synthesis that can be fluorescently tagged after cell fixation. Cycloheximide, a protein synthesis inhibitor, was used as a positive control for the assay.
R2C cells are maintained according to a protocol provided by the American Type Culture Collection (ATCC). At the time of assay, R2C cells were diluted to 1.0 million cells/mL with culture medium (F12 medium supplemented with 2% FBS and 1% Penicillin-Streptomycin) and 50 uL of cell suspension seeded into each well of 384-well clear bottom plates. The assay plates were incubated in a humidified, 37° C., 6% CO2 atmosphere for 24 hours. Serially diluted SF-1 antagonists, cycloheximide or vehicle (DMSO) were then applied to the R2C cells and incubated in a humidified, 37° C., 6% CO2 atmosphere for two days. EdU (Invitrogen), at a final concentration of 5 μM, was added to the cells and incubated for an additional 16 hours, after which cells were fixed with 10% formalin.
Cells were then washed and permeabilized in 0.5% TritonX-100/PBS solution at RT for 1 hour. EdU incorporation was detected by labeling EdU with 6-FAM azide (Lumiprobe) using a copper (I)-catalyzed Click reaction between an azide and alkyne. The reaction mixture consists of 5 mM ascorbic acid, 1 mM CuSO4, 1 μM 6-FAM azide dissolved in PBS buffer. […] For data normalization, the average fluorescence of DMSO wells was defined as 100%, and average fluorescence of 10 μM cycloheximide wells was defined as 0%. Curve fitting and EC50 determination were performed using the variable slope sigmoidal dose-response analysis.
R2C cells were routinely cultured in R2C culture medium. To assay SF-1 antagonist inhibitory activity, R2C cells were resuspended in the R2C plating medium and plated into a 384 well-clear bottom black plate at 20,000 cells/50 μL/well. […] 10 μL EdU plating solution were then dispensed into each well of assay plate incubated at 37° C., 6% CO2 for two days.
R2C proliferation is measured by detecting the fluorescent labelled EdU. The R2C assay plates were fixed by dispense 60 μL of 10% formalin into each well, and the plates were incubated at room temperature for 1 hour on an orbital shaker. The plates were washed with 80 μL of PBS three times, and cells were permeabilized by treating with 100 μL of PBS-0.5% TritonX-100 at RT for 1 hour on an orbital shaker. The plates were washed with 80 μL of PBS three times, and after the last wash, 25 μL of PBS was dispensed into each well. 25 μL of 2× mounting mix solution was then added into each well of fixed cells, and the plates were incubated at RT for 30 min in the dark on an orbital shaker. The cells were washed with 80 μL of PBS, three times, and after the last wash, 25 μL of PBS was dispensed into each well. […] The cells were washed with 80 μL of PBS, three times, and after the last wash, 50 μL of PBS was dispensed into each well. Assay plates were sealed with aluminum foil, and fluorescence was measured using a Envision microplate reader.
The % of control for the proliferation activity was calculated according to the following equation: % of control=100×(A−C)/(B−C) Equation • A: fluorescence count in the test article-treated R2C cells • B: mean fluorescence count in the vehicle-treated R2C cells • C: mean fluorescence count in the 10 μM cycloheximide-treated R2C cells

COc1ccc(NC(=O)Cn2cnc3c(Nc4ccc(C(F)(F)F)cn4)nn(C)c3c2=O)cc1F [Compound 64, N-(3-fluoro-4-methoxyphenyl)-2-(1-methyl-7-oxo-3-((5-(trifluoromethyl)pyridin-2-yl)amino)-1,7-dihydro-6H-pyrazolo[4,3-d]pyrimidin-6-yl)acetamide]
pEC50 (human SF-1): 5.00 to 6.00
pEC50 ([1]; R2C cells, EdU incorporation): 5.00 to 6.00

COc1ccc(NC(=O)Cn2cnc3c(Nc4ccc(OC(C)C)cc4)nn(C)c3c2=O)cc1F [Compound 70, N-(3-fluoro-4-methoxyphenyl)-2-(3-((4-isopropoxyphenyl)amino)-1-methyl-7-oxo-1,7-dihydro-6H-pyrazolo[4,3-d]pyrimidin-6-yl)acetamide]
pEC50 (human SF-1): > 6.70
pEC50 ([1]; R2C cells, EdU incorporation): 5.00 to 6.00

CCn1nc(Nc2ccc(C(F)(F)F)cc2)c2ncn(CC(=O)N[C@H]3CC[C@H](OC(F)F)CC3)c(=O)c21 [Compound 80, N-((1r,4r)-4-(difluoromethoxy)cyclohexyl)-2-(1-ethyl-7-oxo-3-((4-(trifluoromethyl)phenyl)amino)-1,7-dihydro-6H-pyrazolo[4,3-d]pyrimidin-6-yl)acetamide]
pEC50 (human SF-1): > 6.70
pEC50 ([1]; R2C): > 6.70
